The target in one assay is T1, HsCdk2/Cyclin A (Homo sapiens, UniProt P24941).
T1 construct: made in house; host or cells: baculovirus/Sf9 cells
In words: CDK2 kinase assay. Format: biochemical. As to the method:
(§1) Values are IC50 expressed in µM and calculated from dose–response curves (each point on the curves was performed in triplicate). Selectivity indexes (SI; in brackets) are calculated as follows: SI = IC50 kinase X/IC50 Haspin. ND: not determined. *IC50 values obtained using the ADP-Glo methodology (see Experimental section, Supplementary Material). […]
A, HsCdk9/Cyclin T). Native SscCK1δ /ε and SscGSK3α/β were purified from pig brain whereas HsPlk1, HsCdk1 and HsAurora B were purchased from ProQinase and SignalChem respectively. Kinase assays were performed in […]
mCi/ml; PerkinElmer) in a final volume of 30 µl as previously reported 51. After 30 min incubation at 30°C, the reaction mix was spotted onto GE healthcare P81 phosphocellulose paper using a FilterMate Harvester (PerkinElmer), and the filter was extensively washed with a 1% phosphoric acid solution. The wet filter-bound radioactivity was determined in the presence of 20 µl scintillation fluid (GE healthcare) with a TopCount® Scintillation and Luminescence Counter (PerkinElmer). IC50 values were calculated from dose-response curves […]
Kinase activities using the ADP-Glo methodology (ADP-Glo Kinase Assay; Promega) were assayed according to the assay described in Nguyen et al. 52 and Ibrahim et al. 53. […]

In a further assay the test system is U-2 OS. In words: Cell viability, monolayer (2D), MTS assay. Format: cell-based. As to conditions: Homo sapiens, U2OS, 48 h. On the technique in general: Tetrazolium assays rely on reduction of a dye to a coloured formazan, in cell work by metabolically active cells.
The target in a further assay is T2, HsPLK1 (Homo sapiens, UniProt P53350).
T2 construct: purchased ProQinase
T2 sequence (P53350 whole entry): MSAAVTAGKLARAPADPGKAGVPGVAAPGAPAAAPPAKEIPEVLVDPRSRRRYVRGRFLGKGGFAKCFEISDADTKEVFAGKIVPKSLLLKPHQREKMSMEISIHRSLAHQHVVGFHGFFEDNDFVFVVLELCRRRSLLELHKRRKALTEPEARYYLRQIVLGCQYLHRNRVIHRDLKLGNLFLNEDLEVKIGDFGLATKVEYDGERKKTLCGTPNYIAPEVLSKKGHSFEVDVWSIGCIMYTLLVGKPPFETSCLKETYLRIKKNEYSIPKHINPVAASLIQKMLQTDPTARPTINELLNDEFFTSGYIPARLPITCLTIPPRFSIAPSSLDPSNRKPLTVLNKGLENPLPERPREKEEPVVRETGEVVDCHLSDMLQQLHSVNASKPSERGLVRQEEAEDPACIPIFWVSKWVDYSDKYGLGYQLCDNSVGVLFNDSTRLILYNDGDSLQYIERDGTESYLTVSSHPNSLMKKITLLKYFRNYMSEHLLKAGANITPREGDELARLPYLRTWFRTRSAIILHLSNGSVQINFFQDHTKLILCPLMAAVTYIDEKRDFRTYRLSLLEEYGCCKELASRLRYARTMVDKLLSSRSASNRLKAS
In words: PLK1 kinase assay. In kind it is biochemical. As to conditions: Table 4. How it is done:
. We therefore tested our compounds on two obvious candidates, HsCDK1 and HsPLK1 (Polo-like_kinase 1) both required for mitotic entry[50] (Table 4).
Values are IC50 expressed in µM and calculated from dose–response curves (each point from the curves was performed in duplicate). NR: not relevant. […]
Recombinant protein kinases were expressed and purified from E. coli (HsHaspin kinase domain aa470-798, HsCdk5/p25, RnDYRK1A kinase domain aa1-499, HsPIM1, MmCLK1) or baculovirus/Sf9 cells (HsCdk2/Cyclin A, HsCdk9/Cyclin T). Native SscCK1δ /ε and SscGSK3α/β were purified from pig brain whereas HsPlk1, HsCdk1 and HsAurora B were purchased from ProQinase and SignalChem respectively. Kinase assays were performed in specific buffers and substrates for each kinase tested in the presence of 15 µM [γ-33P] ATP (3,000 Ci/mmol, 10 mCi/ml; PerkinElmer) in a final volume of 30 µl as previously reported 51. After 30 min incubation at 30°C, the reaction mix was spotted onto GE healthcare P81 phosphocellulose paper using a FilterMate Harvester (PerkinElmer), and the filter was extensively washed with a 1% phosphoric acid solution. The wet filter-bound radioactivity was determined in the presence of 20 µl scintillation fluid (GE healthcare) with a TopCount® Scintillation and Luminescence Counter (PerkinElmer). IC50 values were calculated from dose-response curves

For the next assay, the system named is HsCdk5/p25. The assay is described as follows: CDK5 kinase assay. In kind it is biochemical, human. The note with it: SI = IC50 kinase X/IC50 Haspin. As to the method: as §1
The reaction was carried out as described in general procedure A using 4 (0.150 g, 0.58 mmol, 1 equiv.), 2-aminopyrimidine-5-boronic acid (0.122 g, 0.88 mmol, 1.5 equiv.) and Cs2CO3 (0.575 g, 1.75 mmol, 3 equiv.). The crude mixture was purified by flash chromatography on silica gel (EtOAc) to afford 28 (0.115 g, 73 %) as a yellow […]
The reaction was carried out as described in general procedure A using 4 (0.100 g, 0.39 mmol, 1 equiv.), 1-naphthaleneboronic acid (0.083g, 0.47 mmol, 1.2 equiv.) and Cs2CO3 (0.381 g, 1.17 mmol, 3 equiv.). […]
Recombinant protein kinases were expressed and purified from E. coli (HsHaspin kinase domain aa470-798, HsCdk5/p25, RnDYRK1A kinase domain aa1-499, HsPIM1, MmCLK1) or baculovirus/Sf9 cells (HsCdk2/Cyclin A, HsCdk9/Cyclin T). […] The wet filter-bound radioactivity was determined in the presence of 20 µl scintillation fluid (GE healthcare) with a TopCount® Scintillation and Luminescence Counter (PerkinElmer). IC50 values were calculated from dose-response curves […]

For `c1cc2[nH]ncc2cc1-c1cnc2ccc(OC[C@@H]3CNCCO3)nn12` [Compound 21], the “selectivity for CDK2 vs Haspin” value on HsCdk2/Cyclin A (SI = IC50 kinase X/IC50 Haspin) came out at 716 fold. Also, the IC50 (as a rule, the point on the concentration scale where inhibition reaches its midpoint) is 4.3 µM at HsCdk2/Cyclin A (read-out: IC50 CDK2) and > 10 µM against HsPLK1. Moreover, the midpoint of the response with U-2 OS, the EC50, lay at 5.2 µM. Also, in the assay on HsCdk5/p25, the “selectivity for CDK5 vs Haspin” value is 150 fold.

Values taken from article PMC7580722, “Design of new disubstituted imidazo[1,2-b]pyridazine derivatives as selective Haspin inhibitors. Synthesis, binding mode and anticancer biological evaluation” (Journal of Enzyme Inhibition and Medicinal Chemistry, 2020).
